Values of other authors, collected in US11246819B2, “Compositions and methods for inhibiting biofilm deposition and production” (THE TRUSTEES OF THE UNIVERSITY OF PENNSYLVANIA, priority 2016, dated 2022).
Where no end group is shown, it is not given here.

B1: mutanase from Paenibacillus sp. strain RM1: bacterial mutanase, codon optimized for chloroplast expression (SEQ ID NO: 1) (protein)
chain: AGGPNLTPGKPITASGQSQTYSPQNVKDGNQNTYWESTNNAFPQWIQVDLGASTGIDQIVLKLPASWEARTQTLAVQGSLNGSTFTDIVGSANYVFSPSVGNNTVTINFTATSTRYVRLYVTANTGWPAAQLSEFEIYGSGDQTPAPDTYQAESAALSGGAKVNTDHAGYIGTGFVDGYWTQGATTTFSVNAPTAGNYDVTLRYGNATGSNKTVSLYVNGAKIRQTTLPSLPNWDSWSSKTETLNLNAGSNTIAYKYDPGDSGNVNLDQITVEASTSTPTPTPSPTPTPTPTPTPTPTPTPTPTPTPTPTPTPTPTPTPTPPPGGNIAIGKSISASSHTQTYVAENANDNDVNTYWEGGGNPSTLTLDLGANYNITSIVLKLNPSSIWAARTQTIQVLGHDQNTTTFSNLVSAKSYSFDPASGNTVTIPVTATVKRLQLNITSNSGAPAGQVAEFQVFGTPAPNPDLTITGMSWSPSSPVETDAITLNATVKNNGNASAAATTVNFYLNNELAGSAPVAALAAGASATVPLNVGAKTAATYAVGAKVDESNAVIELNESNNSYTNPASLVVAPVSSSDLVGTVSWTPSTPIANNAVSFNVNLKNQGTIASAGGSHGVTVVLKNASGSTVQTFSGSYTGSLAPGASVNITLPGTWTAAAGSYTVTATVAADANELPIKQANNANTASLTVYSARGASMPYSRYDTEDATLGGGATLKSAPTFDQALTASEATGQLYAALPSNGSYLQWTVRQGQGGAGVTMRFTMPDSADGMGLNGSLDVYVNGTKVKTVSLTSYYSWQYFSGDMPGDAPSAGRPLFRFDEVHWKLDTPLKPGDTIRIQKNNGDSLEYGVDFIEIEPVPAAISRPANSVSVTDYGAVPNDGQDDLTAFKAAVNAAVASDKILYIPEGTFHLGNMWEIGSVSNMIDHITITGAGIWYTNIQFTNANPASGGISLRITGKLDFSNVYLNSNLRSRYGQNAVYKGFMDNFGTNSVIRDVWVEHFECGFWVGDYGHTPAIRASGLLIENSRIRNNLADGVNFAQGTSNSTVRNSSLRNNGDDALAVWTSNTNGAPEGVNNTFSYNTIENNWRAGGIAFFGGSGHKADHNYIVDCVGGSGIRMNTVFPGYHFQNNTGIVFSDTTIVNCGTSKDLYNGERGAIDLEASNDAIRNVTFTNIDIINSQRDAIQFGYGGGFTNIVFNNININGTGLDGVTTSRFSGPHLGAAIFTYTGNGSATFNNLRTSNIAYPNLYYIQSGFNLIINNHHHHHH
modifications: codon optimized mutanase

Assays:
biofilm = conditions: 3 min incubation with biofilms, mutanase removed, then 6 hr incubation

Molecule | entry into human mast cells and degranulation (human mast cells) | potency when linearized | biofilm degradation (biofilm)
retrocyclin | enter human mast cells and induce degranulation | – | –
protegrin: cysteine-rich, 18-residue β-sheet antimicrobial peptide (RGGRLCYCRRRFCVCVGR; not fully specified (bridges); ends and bridges not checked; UniProt P32194 131-148, looked up) | enter human mast cells and induce degranulation | lost potency | –
B1 | – | – | effectively degraded
